Data set [1] can be described thus: Effect of ultrasound on crystallisation of aqueous D-xylose solution cooled at 0.2 K/min. Particulars: for temperature T at which solid first appeared: solution saturated at 50° C. In kind it is physicochemical. The source says:
Referring to the drawing, a batch crystallisation irradiator 10 includes a stainless-steel vessel 12 of internal diameter 0.31 m and of wall thickness 2 mm. To the outside of the wall are attached sixty transducer modules 14 closely packed in a square array. Each transducer module 14 comprises a 50 W piezoelectric transducer 16 which resonates at 20 kHz, attached to a conically flared titanium coupling block 18 by which it is connected to the wall, the wider end of each block being of diameter 63 mm. The transducer modules define five circumferential rings each of twelve modules 14, the centres of the coupling blocks 18 being on a square pitch of 82 mm. The irradiator 10 also incorporates three signal generators 20 (only one is shown) each of which drives the transducers 16 in a pair of adjacent longitudinal rows and another such pair of rows one third of the circumference apart from the first pair.
Consequently the solution will become saturated and then supersaturated. When the temperature is about 10° C. below that at which saturation occurs, the transducers are energized briefly, each generator 20 being energized for 0.8 s successively. Each transducer irradiates 50 W over a circle of diameter 63 mm, that is an intensity of 1.6 W/cm^2. The ultrasonic energy is dissipated over the cylindrical volume of the vessel 12, which is about 31 litres, so if all the transducers 16 were energised simultaneously the power density would be about 100 W/litre. To avoid focusing, only one signal generator 20 is energized at any one time, so the energy deposition is about 33 W/litre. After 0.8 s, a different generator 20 is energized, and so on. After 2.4 s each transducer has been energized, and application of ultrasound is terminated. The contents of the vessel 12 are then inspected, to see if any crystals have formed. If there are no crystals this activation procedure is repeated.
When they are activated, the signal generators 20 generate signals at a frequency that varies between 19.5 and 20.5 kHz, the signals from different signal generators 20 varying independently of each other. The frequency of each signal generator 20 varies sinusoidally with time between those frequency limits, at a frequency of 10 Hz.
(§1) An experiment to investigate the effect of ultrasound on crystallisation has been performed, as follows. An aqueous solution of D-xylose containing 25 g D-xylose per 10 ml water was prepared, which would be saturated at 50° C. This was than cooled at a rate of 0.2 K/min to 20° C., and the resulting solid products were separated and isolated. […] If the transducers 14 were energized for a period of 2 minutes, starting at 46° C., then crystals appeared at 43° C. If the transducers 14 were energized continuously, starting at 50° C., then the resulting crystals were very small, and information on sizes was not obtained.

Data set [2] in a line: Saturation of aqueous D-xylose solution. Format: physicochemical. Particulars: saturated at 50° C. The protocol: as §1

In the case of `O=C[C@H](O)[C@@H](O)[C@H](O)CO` [D-xylose], the “crystal size at 10% cumulative percentile (by mass)” value in data set [1] (2 min ultrasound) is listed as 43 microns; in data set [1] (no ultrasound), 27 microns. The “crystal size at 50% cumulative percentile (by mass)” value in data set [1] (2 min ultrasound) is 106 microns; in data set [1] (no ultrasound) it was 67 microns. For the same molecule, the entries for the “crystal size at 90% cumulative percentile (by mass)” value in data set [1] (2 min ultrasound) and in data set [1] (no ultrasound) were 211 microns and 149 microns, respectively. Besides, the “temperature T at which solid first appeared” value in data set [1] (2 min ultrasound starting at 46° C., cooled 0.2 K/min) is 43 °C; in data set [1] (continuous ultrasound starting at 50° C., cooled 0.2 K/min), 46 °C; in data set [1] (no ultrasound (control), cooled 0.2 K/min to 20° C.) it was 36 °C. For the same molecule, the metastable zone width entry is given as “about 14 K” in data set [1] (absence of ultrasound), “about 4 K” in data set [1] (continuous application of ultrasound) and “about 7 K” in data set [1] (short application of ultrasound). In data set [2], the “concentration of saturated aqueous solution” value was determined as 25 g per 10 ml water.

For the origin of these results see US7357835B2, “Production of crystalline materials by using high intensity ultrasound” (Accentus PLC, priority 2002, dated 2008).
